Experimental data from patent US4929751A, “Vinyl tricarbonyl compounds and methods of making the same” (Yale University, priority 1987, dated 1990).
Where two headings read alike, the source gives them in different places.

Columns and labels:
Assay in all cases: growth inhibition of tumor cell line
Type in all cases: cell-based
MOLT-4 (LEU) = details: Homo sapiens, status R (not acceptable test)
Source text: (§1) t-Butyl 2,3-dioxo-pent-4-enoate hydrate (A) was contacted with various cell lines as indicated on Table 1 hereinbelow in the column designated as "CELL" or "TUMOR". […]
(§2) Table 1 reports and illustrates the results obtained by testing t-butyl 2,3-dioxo-pent-4-enoate hydrate. The concentration of this compound found to inhibit the growth of each cell line listed under "CELL" by 50% is reported under "LOG(IC50)" as the logarithm of the concentration. The units of concentration are either molarity in which case an "M" is shown in parentheses next to the LOG(IC50) label, or micrograms per ml, in which case a "W" (for weight) is shown in parenthesis. The cell line names are grouped by disease type and the disease type names are listed on the far left.

K562 (leukemia) = details: Homo sapiens
Source text: as §1, §2

[1] = tested on: H322 (nonsmall cell lung cancer); details: NCI-H322
Source text: as §1, §2

HCC-2998 (colon) = details: Homo sapiens
Source text: as §1, §2

SW620 (colon) = details: Homo sapiens
Source text: as §1, §2

[2] = tested on: SNB-44 (central nervous system)
Source text: as §1, §2

LOX (melanoma) = tested on: LOX (melanoma)
Source text: as §1, §2

CAKI-1 (renal) = details: Homo sapiens
Source text: as §1, §2

A2780 (ovarian) = details: Homo sapiens
Source text: as §1, §2

[3] = tested on: EKV-X (nonsmall cell lung cancer); details: Homo sapiens, EKVX
Source text: as §1, §2

[4] = tested on: DMS114 (small cell lung cancer); details: Homo sapiens
Source text: as §1, §2

[5] = tested on: H146 (small cell lung cancer); details: Homo sapiens, NCI-H146
Source text: as §1, §2

P388 = details: Mus musculus
Source text: as §1, §2

[6] = tested on: H82 (small cell lung cancer)
Source text: as §1, §2

[7] = tested on: A549 (nonsmall cell lung cancer); details: Homo sapiens, logarithm of the concentration inhibiting growth by 50%
Source text: as §1, §2

[8] = tested on: H460 (nonsmall cell lung cancer); details: Homo sapiens, NCI-H460, logarithm of the concentration inhibiting growth by 50%
Source text: as §1, §2

[9] = tested on: SK-MES-1 (nonsmall cell lung cancer); details: Homo sapiens, SK-MES1, logarithm of the concentration inhibiting growth by 50%
Source text: as §1, §2

[10] = tested on: MCF-7/ADR (resistant breast cancer); details: Homo sapiens
Source text: as §1, §2

[11] = tested on: H520 (nonsmall cell lung cancer); details: Homo sapiens, NCI-H520
Source text: as §1, §2

DLD-1 (colon) = details: Homo sapiens
Source text: as §1, §2

[12] = tested on: H524 (small cell lung cancer); details: Homo sapiens, NCI-H524
Source text: as §1, §2

UO-31 (renal) = details: Homo sapiens, logarithm of the concentration inhibiting growth by 50%
Source text: as §1, §2

[13] = tested on: H522 (nonsmall cell lung cancer); details: Homo sapiens, NCI-H522
Source text: as §1, §2

OVCAR-4 (ovarian) = details: Homo sapiens, logarithm of the concentration inhibiting growth by 50%
Source text: as §1, §2

[14] = tested on: H23 (nonsmall cell lung cancer)
Source text: as §1, §2

P388/ADR = details: Mus musculus
Source text: as §1, §2

[15] = tested on: H358 (nonsmall cell lung cancer); details: Homo sapiens, NCI-H358
Source text: as §1, §2

[16] = logarithm of the concentration inhibiting growth by 50%, read-out: LOG(IC50) (converted)

IC90 (MOLT-4 (LEU)): 244 µM
IC90 (K562 (leukemia)): 225 µM
IC50 (K562 (leukemia); [16]): 100 µM
IC50 (K562 (leukemia); read-out: IC-50 MEAN): 90.3 µM
IC90 [1]: 246 µM
IC50 ([1]; H322, logarithm of the concentration inhibiting growth by 50%, read-out: LOG(IC50) (converted)): 50.1 µM
IC50 ([1]; read-out: IC-50 MEAN): 48.7 µM
IC50 (HCC-2998 (colon); HCC 2998, HCC2998, logarithm of the concentration inhibiting growth by 50%, read-out: LOG(IC50)): > 50.1 µM
IC50 (HCC-2998 (colon); HCC-2998, read-out: IC-50 MEAN): 52 µM
IC90 (SW620 (colon); SW-620): 234 µM
IC50 (SW620 (colon); SW-620, logarithm of the concentration inhibiting growth by 50%, read-out: LOG(IC50) (converted)): 63.1 µM
IC50 (SW620 (colon); SW-620, read-out: IC-50 MEAN): 58 µM
IC90 ([2]; SNB44): 235 µM
IC50 ([2]; SNB44, logarithm of the concentration inhibiting growth by 50%, read-out: LOG(IC50) (converted)): 100 µM
IC50 ([2]; SNB44, read-out: IC-50 MEAN): 94 µM
IC90 (LOX (melanoma)): 258 µM
IC50 (LOX (melanoma); [16]): 100 µM
IC50 (LOX (melanoma); read-out: IC-50 MEAN): 102 µM
IC90 (CAKI-1 (renal)): 202 µM
IC50 (CAKI-1 (renal); [16]): 50.1 µM
IC50 (CAKI-1 (renal); read-out: IC-50 MEAN): 64.9 µM
IC90 (A2780 (ovarian)): 249 µM
IC50 (A2780 (ovarian); [16]): 63.1 µM
IC50 (A2780 (ovarian); read-out: IC-50 MEAN): 70.3 µM
IC50 [3, 16]: 200 µM
IC50 ([3]; read-out: IC-50 MEAN): 226 µM
IC90 ([4]; DMS-114): 264 µM
IC50 ([4]; DMS-114, logarithm of the concentration inhibiting growth by 50%, read-out: LOG(IC50) (converted)): 126 µM
IC50 ([4]; DMS-114, read-out: IC-50 MEAN): 141 µM
IC50 ([5]; H146, logarithm of the concentration inhibiting growth by 50%, read-out: LOG(IC50) (converted)): 126 µM
IC50 ([5]; read-out: IC-50 MEAN): 124 µM
IC90 (P388): 248 µM
IC50 (P388; [16]): 100 µM
IC50 (P388; read-out: IC-50 MEAN): 114 µM
IC50 ([6]; H82, logarithm of the concentration inhibiting growth by 50%, read-out: LOG(IC50) (converted)): 39.8 µM
IC90 ([6]; Homo sapiens, NCI-H82): 172 µM
IC50 ([6]; Homo sapiens, NCI-H82, read-out: IC-50 MEAN): 36.7 µM
IC50 [7]: > 251 µM
IC50 [8]: > 251 µM
IC50 [9]: > 25.1 µM
IC50 ([10]; NCI/ADR-RES, MCF-7/ADR, read-out: IC-50 MEAN): 96 µM
IC50 ([10]; MCF-7/A, logarithm of the concentration inhibiting growth by 50%, read-out: LOG(IC50) (converted)): 100 µM
IC50 ([11]; H520, logarithm of the concentration inhibiting growth by 50%, read-out: LOG(IC50) (converted)): 100 µM
IC50 ([11]; read-out: IC-50 MEAN): 105 µM
IC90 (DLD-1 (colon)): 187 µM
IC50 (DLD-1 (colon); [16]): 39.8 µM
IC50 (DLD-1 (colon); read-out: IC-50 MEAN): 38.4 µM
IC90 [12]: 189 µM
IC50 ([12]; H524, logarithm of the concentration inhibiting growth by 50%, read-out: LOG(IC50) (converted)): 39.8 µM
IC50 ([12]; read-out: IC-50 MEAN): 40.8 µM
IC50 (UO-31 (renal)): > 251 µM
IC50 ([13]; H522, logarithm of the concentration inhibiting growth by 50%, read-out: LOG(IC50) (converted)): 15.8 µM
IC50 ([13]; read-out: IC-50 MEAN): 14.3 µM
IC50 (OVCAR-4 (ovarian)): 251 µM
IC50 ([14]; H23, logarithm of the concentration inhibiting growth by 50%, read-out: LOG(IC50) (converted)): 50.1 µM
IC90 ([14]; Homo sapiens, NCI-H23): 197 µM
IC50 ([14]; Homo sapiens, NCI-H23, read-out: IC-50 MEAN): 52.7 µM
IC90 (P388/ADR): 244 µM
IC50 (P388/ADR; P388/AD, logarithm of the concentration inhibiting growth by 50%, read-out: LOG(IC50) (converted)): 126 µM
IC50 (P388/ADR; read-out: IC-50 MEAN): 118 µM
IC50 ([15]; H358, logarithm of the concentration inhibiting growth by 50%, read-out: LOG(IC50) (converted)): 158 µM
IC50 ([15]; read-out: IC-50 MEAN): 155 µM
SMILES: C=CC(=O)C(O)(O)C(=O)OC(C)(C)C [t-butyl 2,3-dioxo-pent-4-enoate hydrate]
